Measured values: ChEMBL document CHEMBL3137440, “DNDi T. cruzi fenarimol series dataset from which preclinical candidate EPL-BS0967 was identified (see also related datasets: CHEMBL3137386 and CHEMBL2448688)”
Converted amounts (≈) assume the structure as drawn. “And” between values parts separate entries of the source, which are not always exact repeats. Equal entries are not always repeated.

What was measured:
Trypanosoma cruzi [1] = experiment: (§1) DNDI: Chagas in Vitro; type: functional, organism-based, Tulahuen C4 (LacZ)
Trypanosoma cruzi [2] = experiment: as §1; type: functional, Tulahuen C4 (LacZ)
[3] = DNDI: Cytotoxicity against L-6 rat myoblasts from skeletal musclE; details: L6 rat skeletal muscle myoblasts, IC50
Leishmania donovani = experiment: DNDI: Inhibition of formation of Leishmania donovani; type: functional, MHOM/ET/67/L82; set-up: concentration or dose not given beside the values
[4] = DNDI: Lipophilicity (gLogD) at pH 3; details: buffer
[5] = DNDI: Solubility in phosphate buffer at pH 6.5 determined by nephelometry
in vitro [6] = details: human, microsomes
in vitro [7] = details: human, microsomes; remark: listed apart in the source
[8] = DNDI: Lipophilicity (gLogD) at pH 7.4; details: buffer
[9] = DNDI: Metabolism; type: ADME, Microsome; details: rat, microsomes; for hepatic extraction ratio: read-out: EH
[10] = DNDI: Solubility in 0.01M HCl at pH 2 determined by nephelometry
Cytochrome P450 3A4 [11] = biological target: T1, Cytochrome P450 3A4 (Homo sapiens, UniProt P08684)
T1 sequence (P08684 whole entry): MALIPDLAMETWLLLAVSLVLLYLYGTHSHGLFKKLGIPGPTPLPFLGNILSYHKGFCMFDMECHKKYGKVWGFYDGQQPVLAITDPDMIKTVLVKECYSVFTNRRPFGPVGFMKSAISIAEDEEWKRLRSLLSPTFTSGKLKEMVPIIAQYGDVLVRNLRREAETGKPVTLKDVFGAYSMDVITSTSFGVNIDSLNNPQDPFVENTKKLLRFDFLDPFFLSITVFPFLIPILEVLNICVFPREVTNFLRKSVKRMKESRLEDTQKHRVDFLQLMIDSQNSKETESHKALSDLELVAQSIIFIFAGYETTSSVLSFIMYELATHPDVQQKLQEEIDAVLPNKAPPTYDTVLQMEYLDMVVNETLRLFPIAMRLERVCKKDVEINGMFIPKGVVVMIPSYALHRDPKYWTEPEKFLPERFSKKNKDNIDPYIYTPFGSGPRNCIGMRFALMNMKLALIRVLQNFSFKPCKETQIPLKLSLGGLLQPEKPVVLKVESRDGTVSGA

in vitro [12] = details: human, microsomes; remark: listed apart in the source
Cytochrome P450 3A4 [13] = biological target: T1, Cytochrome P450 3A4; remark: listed apart in the source
Cytochrome P450 3A4 [14] = biological target: T1, Cytochrome P450 3A4; experiment: DNDI: CYP Inhibition; type: ADME
[15] = Trypanosoma cruzi, Tulahuen C4 (LacZ)

Row | IC50 (Trypanosoma cruzi [1]; [15]) | IC90 (Trypanosoma cruzi [2]; [15]) | chromatographic logD ([4]; pH 3) | solubility kinetic [5] | half-life (in vitro [6]) | microsomal CLint (in vitro [7]) | chromatographic logD ([8]; pH 7.4) | solubility kinetic [10] | hepatic extraction ratio (in vitro [12]) | IC50 (Cytochrome P450 3A4 [13]) | Structure (SMILES) | IC50 [3] | other results
1 | 3 nM | 9 nM | 4.6 | < 1.6 µg/mL | 43.9 min | 39.5 µL/min/mg |  |  |  |  | N#Cc1ccc(N(c2cccnc2)C2CCN(c3ccc(C(F)(F)F)cc3)CC2)cc1 | > 100000 nM | IC90 (Trypanosoma cruzi [2]): 10 nM; % inhibition (Leishmania donovani): 28.1%
2 | 2.66 nM | 7.59 nM | 3.1 | 6.3 µg/mL (≈ 15.5 µM) | 13.8 min | 126 µL/min/mg | 4.2 | > 100 µg/mL | 0.88 |  | CC(C)(C)C(=O)N1CCC(N(c2ccc(C(F)(F)F)cc2)c2cccnc2)CC1 |  | half-life [9]: 13.2 min; microsomal CLint [9]: 131 µL/min/mg; hepatic extraction ratio [9]: 0.81; IC50 (Cytochrome P450 3A4 [11]): 1900 nM
3 | 0.618 nM | 1.47 nM | 3.5 | 1.6 µg/mL (≈ 3.24 µM) | 7 min | 247 µL/min/mg | 4.4 | > 100 µg/mL | 0.93 |  | O=C(c1ccccc1C(F)(F)F)N1CCC(N(c2ccc(C(F)(F)F)cc2)c2cccnc2)CC1 |  | % inhibition (Leishmania donovani): 66.3%; half-life [9]: 24 min; microsomal CLint [9]: 72.1 µL/min/mg; hepatic extraction ratio [9]: 0.7; IC50 (Cytochrome P450 3A4 [11]): 1700 nM
4 | 15 nM | 38 nM |  |  |  |  |  |  |  |  | FC(F)(F)c1ccc(N2CCC(N(c3ccc(C(F)(F)F)cc3)c3cccnc3)CC2)cc1 |  | IC50 (Trypanosoma cruzi [1]): 23 nM and 16.5 nM; IC90 (Trypanosoma cruzi [2]): 28 nM and 41 nM; % inhibition (Leishmania donovani): 38.5%
5 | 3 nM | 8 nM | 4.4 | < 1.6 µg/mL | 12.8 min | 136 µL/min/mg |  | > 100 µg/mL | 0.88 |  | N#Cc1ccccc1N1CCC(N(c2ccc(C(F)(F)F)cc2)c2cccnc2)CC1 |  | % inhibition (Leishmania donovani): 60.9%
6 | 7 nM | 13 nM | 4.3 | < 1.6 µg/mL | 15.5 min | 112 µL/min/mg | 4.7 | 50 µg/mL (≈ 118 µM) |  |  | N#Cc1ccc(N2CCC(N(c3ccc(C(F)(F)F)cc3)c3cccnc3)CC2)cc1 | > 100000 nM | % inhibition (Leishmania donovani): 51.5%
7 | 6.93 nM | 11 nM | 2.1 | 12.5 µg/mL (≈ 28 µM) | 16.6 min | 105 µL/min/mg | 3.3 | > 100 µg/mL | 0.85 |  | Cc1ncsc1C(=O)N1CCC(N(c2ccc(C(F)(F)F)cc2)c2cccnc2)CC1 | 67400 nM | half-life [9]: 28.1 min; microsomal CLint [9]: 61.8 µL/min/mg; hepatic extraction ratio [9]: 0.67; IC50 (Cytochrome P450 3A4 [11]): 2900 nM
8 | 1.8 nM | 3 nM | 4.2 | < 1.6 µg/mL | 23.5 min | 73.7 µL/min/mg | 4.4 | 6.3 µg/mL (≈ 16.1 µM) | 0.8 | 4300 nM | N#Cc1ccc(N(c2cccnc2)C2CCN(c3ccc(F)c(F)c3)CC2)cc1 | > 100000 nM | 
9 | 15 nM | 31 nM | 4.4 | < 1.6 µg/mL | 6.7 min | 258 µL/min/mg | 4.7 | 25 µg/mL (≈ 49.5 µM) | 0.94 | 7000 nM | CN(C)S(=O)(=O)c1cccc(N2CCC(N(c3ccc(C(F)(F)F)cc3)c3cccnc3)CC2)c1 | 10400 nM | 
10 | 6 nM | 11 nM | 3.6 | < 1.6 µg/mL | 3.4 min | 504 µL/min/mg | 3.7 | 50 µg/mL (≈ 108 µM) | 0.97 | 6000 nM | CN(C)S(=O)(=O)c1cccc(N2CCC(N(c3ccc(C#N)cc3)c3cccnc3)CC2)c1 |  | 
11 | 94 nM | 280 nM | 1.6 | 12.5 µg/mL (≈ 34.2 µM) | 35.5 min | 48.8 µL/min/mg | 3.1 | > 100 µg/mL | 0.73 |  | CS(=O)(=O)N1CCC(N(c2ccc(Cl)cc2)c2cccnc2)CC1 | 62500 nM | IC50 (Cytochrome P450 3A4 [14]): 2600 nM; half-life [9]: 27.7 min; microsomal CLint [9]: 62.6 µL/min/mg; hepatic extraction ratio [9]: 0.67
12 | 7 nM | 11 nM | 5.2 | < 1.6 µg/mL | 32.8 min | 52.9 µL/min/mg | > 5.3 | 12.5 µg/mL (≈ 25.5 µM) | 0.75 | > 20000 nM | N#Cc1cc(C(F)(F)F)ccc1N1CCC(N(c2ccc(C(F)(F)F)cc2)c2cccnc2)CC1 | 24300 nM | 
13 | 5 nM | 10.5 nM | 4.7 | < 1.6 µg/mL | 16.8 min | 103 µL/min/mg | > 5.3 | 25 µg/mL (≈ 54.7 µM) | 0.85 | > 20000 nM | N#Cc1cc(C(F)(F)F)ccc1N1CCC(N(c2ccc(Cl)cc2)c2cccnc2)CC1 | 17700 nM | 
14 | 7 nM | 13.5 nM | 4.6 | < 1.6 µg/mL | 14.6 min | 118 µL/min/mg | 4.8 | 50 µg/mL (≈ 113 µM) | 0.87 | > 20000 nM | Cn1nc(C2CC2)cc1N1CCC(N(c2ccc(C(F)(F)F)cc2)c2cccnc2)CC1 | 30000 nM | 

Row | Structure (SMILES) | IC50 (Trypanosoma cruzi [1]; [15]) | IC90 (Trypanosoma cruzi [2]; [15]) | chromatographic logD ([4]; pH 3) | solubility kinetic [5] | half-life (in vitro [6]) | microsomal CLint (in vitro [7]) | chromatographic logD ([8]; pH 7.4) | solubility kinetic [10] | hepatic extraction ratio (in vitro [12]) | IC50 (Cytochrome P450 3A4 [13]) | IC50 [3] | other results
15 | CCC(C(C)=O)N1CCC(N(c2ccc(C(F)(F)F)cc2)c2cccnc2)CC1 (configuration not stated) | 8 nM | 20 nM |  | 12.5 µg/mL (≈ 30.8 µM) |  |  |  | > 100 µg/mL |  | 10000 nM | 25000 nM | chromatographic logD ([4]; pH 3, logD): 1.6; chromatographic logD ([8]; pH 7.4, logD): 4.6; half-life (in vitro [6]; t (1 / 2)): 11.1 min; hepatic extraction ratio (in vitro [12]; EH): 0.9; microsomal CLint (in vitro [7]; CLint): 156 µL/min/mg
16 | CC(=O)C(C)N1CCC(N(c2ccc(C(F)(F)F)cc2)c2cccnc2)CC1 (configuration not stated) | 15 nM | 31 nM |  | 6.3 µg/mL (≈ 16.1 µM) |  |  |  | > 100 µg/mL |  | 5000 nM | 69000 nM | chromatographic logD ([4]; pH 3, logD): 1.3; chromatographic logD ([8]; pH 7.4, logD): 4.2; half-life (in vitro [6]; t (1 / 2)): 21.5 min; hepatic extraction ratio (in vitro [12]; EH): 0.82; microsomal CLint (in vitro [7]; CLint): 80.7 µL/min/mg
17 | CCC(C(C)O)N1CCC(N(c2ccc(C(F)(F)F)cc2)c2cccnc2)CC1 (configuration not stated) | 61 nM | > 100 nM |  | 25 µg/mL (≈ 61.4 µM) |  |  |  | > 100 µg/mL |  | 17000 nM | 49600 nM | chromatographic logD ([4]; pH 3, logD): 1.6; chromatographic logD ([8]; pH 7.4, logD): 4.3; half-life (in vitro [6]; t (1 / 2)): 35.8 min; hepatic extraction ratio (in vitro [12]; EH): 0.73; microsomal CLint (in vitro [7]; CLint): 48.4 µL/min/mg
18 | CC(C)C(O)CN1CCC(N(c2ccc(C(F)(F)F)cc2)c2cccnc2)CC1 (configuration not stated) | 36 nM | > 10000 nM |  | 25 µg/mL (≈ 61.4 µM) |  |  |  | > 100 µg/mL |  | > 20000 nM | 51500 nM | chromatographic logD ([4]; pH 3, logD): 1.6; chromatographic logD ([8]; pH 7.4, logD): 3.9; half-life (in vitro [6]; t (1 / 2)): 29.8 min; hepatic extraction ratio (in vitro [12]; EH): 0.76; microsomal CLint (in vitro [7]; CLint): 58.2 µL/min/mg
